According to ChEMBL document CHEMBL4673315, “Structure-activity relationship (SAR) studies on the mutagenic properties of 2,7-diaminofluorene and 2,7-diaminocarbazole derivatives” (Bioorg Med Chem Lett, 2021):

Assays:
[1] = Mutagenicity in Salmonella typhimurium TA100 in presence of liver S9 fraction by AMES test; type: toxicity, subcellular; settings: salmonella enterica subsp. enterica serovar typhimurium
[2] = Mutagenicity in Salmonella typhimurium TA100 by AMES test; type: toxicity; settings: salmonella enterica subsp. enterica serovar typhimurium
[3] = Mutagenicity in Salmonella typhimurium TA98 in presence of liver S9 fraction by AMES test; type: toxicity, subcellular; settings: salmonella enterica subsp. enterica serovar typhimurium
[4] = Mutagenicity in Salmonella typhimurium TA98 by AMES test; type: toxicity; settings: salmonella enterica subsp. enterica serovar typhimurium
[5] = tested on: Hepatitis C virus; assay: Antiviral activity against Hepatitis C virus subtype 1b harboring NS5A L31V/Y93H double mutant infected in Huh 7.5.1 cells assessed as reduction in viral replication incubated for 3 days by NK5.1 luciferase reporter gene assay; type: functional, organism-based, Hepacivirus hominis; settings: Huh-7.5.1, 72 h
[6] = tested on: Hepatitis C virus; assay: Antiviral activity against Hepatitis C virus subtype 1b harboring NS5A Y93H mutant infected in Huh 7.5.1 cells assessed as reduction in viral replication incubated for 3 days by NK5.1 luciferase reporter gene assay; type: functional, organism-based, Hepacivirus hominis; settings: Huh-7.5.1, 72 h
[7] = tested on: Hepatitis C virus; assay: Antiviral activity against Hepatitis C virus subtype 1b harboring NS5A L31V mutant infected in Huh 7.5.1 cells assessed as reduction in viral replication incubated for 3 days by NK5.1 luciferase reporter gene assay; type: functional, organism-based, Hepacivirus hominis; settings: Huh-7.5.1, 72 h
[8] = tested on: Hepatitis C virus; assay: Antiviral activity against Hepatitis C virus subtype 3a infected in Huh 7.5.1 cells assessed as reduction in viral replication incubated for 3 days by S52-Feo luciferase reporter gene assay; type: functional, organism-based, Hepacivirus hominis; settings: Huh-7.5.1, 72 h
[9] = tested on: Hepatitis C virus; assay: Antiviral activity against Hepatitis C virus subtype 2a infected in Huh 7.5.1 cells assessed as reduction in viral replication incubated for 3 days by JC1 Gaussia luciferase reporter gene assay; type: functional, organism-based, Hepacivirus hominis; settings: Huh-7.5.1, 72 h
[10] = tested on: Hepatitis C virus; assay: Antiviral activity against Hepatitis C virus subtype 1b infected in Huh 7.5.1 cells assessed as reduction in viral replication incubated for 3 days by NK5.1 luciferase reporter gene assay; type: functional, organism-based, Hepacivirus hominis; settings: Huh-7.5.1, 72 h

## Nc1ccc2c(c1)C(c1ccc3ccccc3c1)c1cc(N)ccc1-2
[1]
  Activity: Non-Toxic
[2]
  Activity: Non-Toxic
[3]
  Activity: Toxic
[4]
  Activity: Non-Toxic

## Nc1ccc2c(c1)C(=Cc1ccncc1)c1cc(N)ccc1-2
[1]
  Activity: Toxic
[2]
  Activity: Non-Toxic
[3]
  Activity: Toxic
[4]
  Activity: Non-Toxic

## Nc1ccc2c(c1)C(CCCCC(F)(F)F)(CCCCC(F)(F)F)c1cc(N)ccc1-2
[1]
  Activity: Non-Toxic
[2]
  Activity: Non-Toxic
[3]
  Activity: Non-Toxic
[4]
  Activity: Non-Toxic

## Nc1ccc2c3ccc(N)cc3n(C(C3CC3)C3CC3)c2c1
[1]
  Activity: Toxic
[2]
  Activity: Non-Toxic
[3]
  Activity: Toxic
[4]
  Activity: Non-Toxic

## CCCC1(CCC)c2cc(N)ccc2-c2ccc(N)cc21
[1]
  Activity: Non-Toxic
[2]
  Activity: Non-Toxic
[3]
  Activity: Toxic
[4]
  Activity: Non-Toxic

## Nc1ccc2c(c1)C(Cc1ccc(C(F)(F)F)cc1)c1cc(N)ccc1-2
[1]
  Activity: Non-Toxic
[2]
  Activity: Non-Toxic
[3]
  Activity: Toxic
[4]
  Activity: Toxic

## Nc1ccc2c(c1)C(c1ccc(Br)cc1)c1cc(N)ccc1-2
[1]
  Activity: Non-Toxic
[2]
  Activity: Non-Toxic
[3]
  Activity: Toxic
[4]
  Activity: Non-Toxic

## COCCOc1cccc(Cn2c3cc(N)ccc3c3ccc(N)cc32)c1
[1]
  Activity: Non-Toxic
[2]
  Activity: Non-Toxic
[3]
  Activity: Toxic
[4]
  Activity: Non-Toxic

## CC(c1ccccc1)n1c2cc(N)ccc2c2ccc(N)cc21 (stereo not given)
[1]
  Activity: Toxic
[2]
  Activity: Non-Toxic
[3]
  Activity: Toxic
[4]
  Activity: Non-Toxic

## CCCCCCCCCCCCn1c2cc(N)ccc2c2ccc(N)cc21
[1]
  Activity: Non-Toxic
[2]
  Activity: Non-Toxic
[3]
  Activity: Non-Toxic
[4]
  Activity: Non-Toxic

## Nc1ccc2c(c1)C(CCCC(F)(F)F)(CCCC(F)(F)F)c1cc(N)ccc1-2
[1]
  Activity: Non-Toxic
[2]
  Activity: Non-Toxic
[3]
  Activity: Toxic
[4]
  Activity: Non-Toxic

## CCCCn1c2cc(N)ccc2c2ccc(N)cc21
[1]
  Activity: Toxic
[2]
  Activity: Toxic
[3]
  Activity: Toxic
[4]
  Activity: Toxic

## CC(C)c1ccc(C2c3cc(N)ccc3-c3ccc(N)cc32)cc1
[1]
  Activity: Non-Toxic
[2]
  Activity: Non-Toxic
[3]
  Activity: Toxic
[4]
  Activity: Non-Toxic

## CCCCC(c1ccccc1)n1c2cc(N)ccc2c2ccc(N)cc21 (stereo not given)
[1]
  Activity: Non-Toxic
[2]
  Activity: Non-Toxic
[3]
  Activity: Toxic
[4]
  Activity: Non-Toxic

## Nc1ccc2c3ccc(N)cc3n(CCCCCCCCCCN3CCOCC3)c2c1
[1]
  Activity: Non-Toxic
[2]
  Activity: Non-Toxic
[3]
  Activity: Non-Toxic
[4]
  Activity: Non-Toxic

## CCCCCCCCCC(c1ccccc1)n1c2cc(N)ccc2c2ccc(N)cc21 (stereo not given)
[1]
  Activity: Non-Toxic
[2]
  Activity: Non-Toxic
[3]
  Activity: Non-Toxic
[4]
  Activity: Non-Toxic

## CC(C)=CC1c2cc(N)ccc2-c2ccc(N)cc21
[1]
  Activity: Toxic
[2]
  Activity: Toxic
[3]
  Activity: Toxic
[4]
  Activity: Toxic

## CCCCOc1ccc(Cn2c3cc(N)ccc3c3ccc(N)cc32)cc1
[1]
  Activity: Non-Toxic
[2]
  Activity: Non-Toxic
[3]
  Activity: Toxic
[4]
  Activity: Non-Toxic

## CCCCCCOc1ccc(Cn2c3cc(N)ccc3c3ccc(N)cc32)cc1
[1]
  Activity: Non-Toxic
[2]
  Activity: Non-Toxic
[3]
  Activity: Toxic
[4]
  Activity: Non-Toxic

## Nc1ccc2c(c1)C(c1ccc(C(F)(F)F)cc1)c1cc(N)ccc1-2
[1]
  Activity: Non-Toxic
[2]
  Activity: Non-Toxic
[3]
  Activity: Toxic
[4]
  Activity: Non-Toxic

## Nc1ccc2c(c1)C(=Cc1ccc(C(F)(F)F)cc1)c1cc(N)ccc1-2
[1]
  Activity: Non-Toxic
[2]
  Activity: Non-Toxic
[3]
  Activity: Toxic
[4]
  Activity: Toxic

## Nc1ccc2c3ccc(N)cc3n(Cc3cccc(OC4CCCC4)c3)c2c1
[1]
  Activity: Non-Toxic
[2]
  Activity: Non-Toxic
[3]
  Activity: Toxic
[4]
  Activity: Non-Toxic

## CC(C)(C)c1ccc(C2c3cc(N)ccc3-c3ccc(N)cc32)cc1
[1]
  Activity: Non-Toxic
[2]
  Activity: Non-Toxic
[3]
  Activity: Toxic
[4]
  Activity: Non-Toxic

## CCCCC(CCCC)n1c2cc(N)ccc2c2ccc(N)cc21
[1]
  Activity: Non-Toxic
[2]
  Activity: Non-Toxic
[3]
  Activity: Non-Toxic
[4]
  Activity: Non-Toxic

## CCCCCCCCCCn1c2cc(N)ccc2c2ccc(N)cc21
[1]
  Activity: Non-Toxic
[2]
  Activity: Non-Toxic
[3]
  Activity: Toxic
[4]
  Activity: Non-Toxic

## Nc1ccc2c(c1)C(c1ccc(F)cc1)c1cc(N)ccc1-2
[1]
  Activity: Non-Toxic
[2]
  Activity: Non-Toxic
[3]
  Activity: Toxic
[4]
  Activity: Non-Toxic

## CCCCC1(CCCC)c2cc(NC(=O)[C@@H]3C[C@@H](O)CN3C(=O)[C@H](NC(=O)OC)c3ccccc3)ccc2-c2ccc(NC(=O)[C@@H]3C[C@@H](O)CN3C(=O)[C@H](NC(=O)OC)c3ccccc3)cc21
[5]
  EC50: 41.4 nM
[6]
  EC50: 0.88 nM
[7]
  EC50: 3 pM
[8]
  EC50: 0.016 nM
[9]
  EC50: 1.2 nM
[10]
  EC50: 2 pM
